Data reported in patent publication US20110143946A1, “Method for predicting the response of a tumor in a patient suffering from or at risk of developing recurrent gynecologic cancer towards a chemotherapeutic agent” (SIEMENS HEALTHCARE DIAGNOSTICS INC., priority 2007, published 2011).

What was measured:
primary tumors = test: in vitro chemosensitivity assay of primary tumors (ATP-measurement, AUC of dose-response curve); format: cell-based; settings: 6 days of incubation; for response (chemosensitivity) of tumors of the basal subtype: basal molecular subtype (MLPH<2000); for response (chemosensitivity) of tumors of the luminal A subtype: luminal A molecular subtype (ESR1 >6000, PGR >160)
Procedure: In a second step for the identification of an optimal predictive gene signature in vitro chemosensitivity assays of primary tumors are performed to determine the response of a tumor towards a single chemotherapeutic agent. In said in vitro chemosensitivity assays the primary tumors were cultivated in different assays with increasing concentrations of the agents. After 6 days of incubation the vitality of the tumor cells were determined with an ATP-measurement. Hereby, the growing inhibition for the different agent concentrations could be determined and a dose-response curve could be provided. For each tumor the Area under the dose-response curve (AUC) could be determined for the different agents. The AUC is used to evaluate the response of a tumor towards a chemotherapeutic agent. The bigger the AUC, the more sensitive is the tumor towards the agent. The tumor samples were classified according to their sensitivity towards the agents into three classes (resistant, intermediate, sensitive) via the tertiles of the AUC arrangement.

NCI 60 cell lines = test: NCI 60 cell line chemosensitivity (GI-50); format: cell-based; settings: AKR1C1 cut-off score 5000
Procedure: In this study several tumor cell lines of different cancer types were tested for their sensitivity towards several chemotherapeutic agents. The GI-50 value (concentration, where half of the tumor cells are inhibited regarding growing) for Paclitaxel was used to test, whether AKR1C1 is appropriate for a prediction of a Paclitaxel sensitivity in cell lines. […] The defined cut-off score (5000) allowed a significant classification (p=0.0049) of the resistant and sensitive tumor cells of the NCI 60 cell lines (FIG. 14).
NCI 60 cell lines were classified with the marker gene AKR1C1 (cut-off score 5000). Onto the ordinate the concentration of Palitaxel is depicted, which is needed for the inhibition of half of the cells (GI-50). Altogether for Paclitaxel 54 GI-50 values for the cell lines were provided.

SMILES	response (chemosensitivity) of tumors of the basal subtype (primary tumors)	response (chemosensitivity) of tumors of the luminal A subtype (primary tumors)	sensitivity (GI-50) of cell lines with high expression of AKR1C1 (NCI 60 cell lines)
COc1cccc2c1C(=O)c1c(O)c3c(c(O)c1C2=O)C[C@@](O)(C(=O)CO)C[C@@H]3O[C@H]1C[C@H](N)[C@@H](O)[C@H](C)O1 [Epirubicin]	particularly sensitive	resistant	
CC(=O)O[C@H]1C(=O)[C@@]2(C)[C@H]([C@H](OC(=O)c3ccccc3)[C@]3(O)C[C@H](OC(=O)[C@H](O)[C@@H](NC(=O)c4ccccc4)c4ccccc4)C(C)=C1C3(C)C)[C@]1(OC(C)=O)CO[C@@H]1C[C@@H]2O [Paclitaxel]	particularly sensitive	resistant	mainly are resistant
